From patent EP0358494B1, “Emulsifiable concentrate of a pesticide” (priority 1988, dated 1990) come the findings set out here.

The data set in a line: Solubility of water in the cosolvent (Table 1). Format: physicochemical. The procedure: All of the compositions were prepared by simple mechanical agitation of the ingredients together, using a Silveron (Trade Mark) high shear mixer. The nature and water solubility of the various cosolvents employed are as noted in Table 1.
Setting [1] is: the cosolvent itself (neat solvent).

Like-named read-outs stand apart in the source and are kept apart here.

Take `COC(C)COC(C)CO` (centres unmarked) [Dipropylene glycol monomethyl ether]: the “Solubility of water in solvent (H20/Solv)” value (“Solubility … (H20/Solv)” for short) is listed as “miscible”.
Still for that read-out and setting: to `CCOP(=S)(OCC)Oc1nc(Cl)c(Cl)cc1Cl` [chlorpyrifos] belongs “.0002% w/w”.
For `CCSCc1ccccc1OC(=O)NC` [ethiofencarb], the “Solubility … (H20/Solv)” value under setting [1] was determined as 0.18% w/w.
On the same count and under the same terms, to `COP(=S)(OC)Oc1ccc([N+](=O)[O-])c(C)c1` [fenitrothion] belongs 0.0014% w/w.
Turning to xylene, the “Solubility … (H20/Solv)” value was 0.87% w/w.
